This passage reports % of inhibition and % of control results from ChEMBL document CHEMBL5465560, “Selectivity Literature for EUbOPEN Chemogenomic Library” (2024).

The target in experiment [1] is Dual specificity mitogen-activated protein kinase kinase 2 (Homo sapiens) (UniProt P36507). In words: Selectivity interaction (Rxn Biology Kinase assay) EUB0001632a MAP2K2. The following applies: at 10 µM.
Experiment [2] addresses Ephrin type-A receptor 5 (Homo sapiens) (UniProt P54756). In words: Selectivity interaction (Ambit KINOMEscan and KiNATiv profiling in Jurkat cells) EUB0000090b EPHA5. Type of experiment: cell-based. The conditions noted are these: at 1 µM.
Experiment [3] deals with Mitogen-activated protein kinase kinase kinase 20 (Homo sapiens) (UniProt Q9NYL2). Put plainly: Selectivity interaction (KinomeScan (DiscoverX)) EUB0000607a MAP3K20. The following applies: at 10 µM.
In experiment [4] the target is Casein kinase I isoform delta (Homo sapiens, UniProt P48730). Put plainly: Selectivity interaction (KinomeScan (DiscoverX)) EUB0000655a CSNK1D. The conditions noted are these: at 10 µM.
In experiment [5] the target is Myosin light chain kinase, smooth muscle (Homo sapiens, UniProt Q15746). In words: Selectivity interaction (KinomeScan (DiscoverX)) EUB0001079a MYLK. The following applies: at 1 µM.
The target in experiment [6] is Tyrosine-protein kinase Lck (Homo sapiens, UniProt P06239). Put plainly: Selectivity interaction (Kinase panel (literature)) EUB0001199aCl LCK. The conditions noted are these: at 1 µM.
Chain of Tyrosine-protein kinase Lck (P06239 2-509 limits assumed): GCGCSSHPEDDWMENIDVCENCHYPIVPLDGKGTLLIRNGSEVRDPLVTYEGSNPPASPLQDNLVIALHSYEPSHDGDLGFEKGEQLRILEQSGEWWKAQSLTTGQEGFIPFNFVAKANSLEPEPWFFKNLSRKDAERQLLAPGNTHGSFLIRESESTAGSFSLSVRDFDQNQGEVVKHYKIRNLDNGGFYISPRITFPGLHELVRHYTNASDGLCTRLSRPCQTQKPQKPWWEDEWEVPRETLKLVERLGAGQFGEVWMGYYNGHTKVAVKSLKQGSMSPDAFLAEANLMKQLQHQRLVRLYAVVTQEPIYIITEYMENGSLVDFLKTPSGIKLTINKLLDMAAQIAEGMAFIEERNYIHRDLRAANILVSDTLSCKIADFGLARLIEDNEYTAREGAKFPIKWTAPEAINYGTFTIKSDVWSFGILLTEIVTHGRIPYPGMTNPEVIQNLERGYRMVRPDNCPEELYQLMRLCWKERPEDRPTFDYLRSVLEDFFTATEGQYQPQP
In experiment [7] the target is T1, Cyclin-dependent kinase 11A (Homo sapiens) (UniProt Q9UQ88).
T1 sequence (whole entry): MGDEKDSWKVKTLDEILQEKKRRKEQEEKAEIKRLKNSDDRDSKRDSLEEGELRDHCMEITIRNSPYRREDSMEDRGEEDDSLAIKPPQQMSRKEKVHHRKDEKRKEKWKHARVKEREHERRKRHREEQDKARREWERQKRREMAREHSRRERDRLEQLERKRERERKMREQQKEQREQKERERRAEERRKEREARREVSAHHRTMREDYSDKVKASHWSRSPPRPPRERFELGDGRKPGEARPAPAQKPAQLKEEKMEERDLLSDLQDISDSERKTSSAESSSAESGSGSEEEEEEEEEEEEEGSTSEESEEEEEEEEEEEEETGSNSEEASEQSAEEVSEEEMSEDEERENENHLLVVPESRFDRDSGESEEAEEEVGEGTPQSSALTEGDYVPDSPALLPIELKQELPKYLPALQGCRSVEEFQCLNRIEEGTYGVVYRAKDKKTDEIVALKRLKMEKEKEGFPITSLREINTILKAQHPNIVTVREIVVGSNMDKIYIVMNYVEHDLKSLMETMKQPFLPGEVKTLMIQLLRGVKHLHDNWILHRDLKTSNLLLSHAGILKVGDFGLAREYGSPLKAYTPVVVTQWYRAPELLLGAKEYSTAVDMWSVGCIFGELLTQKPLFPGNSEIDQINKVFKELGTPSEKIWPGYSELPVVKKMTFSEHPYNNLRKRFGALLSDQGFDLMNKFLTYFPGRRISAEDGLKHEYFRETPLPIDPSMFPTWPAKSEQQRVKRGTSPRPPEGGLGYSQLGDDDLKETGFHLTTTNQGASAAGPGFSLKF
In words: Selectivity interaction (ActivX KiNativ screen (kinase selectivity in THP-1 cell lysates)) EUB0000639a CDK11A. The conditions noted are these: lysate, at 0.04 µM. Format: subcellular.

Experiment [8] deals with Interferon-induced, double-stranded RNA-activated protein kinase (Homo sapiens) (UniProt P19525). Put plainly: Selectivity interaction (ActivX KiNativ screen (kinase selectivity in THP-1 cell lysates)) EUB0000639a EIF2AK2. Format: subcellular. The conditions noted are these: lysate, at 0.01 µM.
For experiment [9], the target named is MAP kinase-activated protein kinase 2 (Homo sapiens, UniProt P49137). Put plainly: Selectivity interaction (Millipore kinase profiler) EUB0000124b MAPKAPK2. The conditions noted are these: at 10 µM.
In experiment [10] the target is T2, cGMP-dependent protein kinase 2 (Homo sapiens) (UniProt Q13237).
T2 sequence (whole entry): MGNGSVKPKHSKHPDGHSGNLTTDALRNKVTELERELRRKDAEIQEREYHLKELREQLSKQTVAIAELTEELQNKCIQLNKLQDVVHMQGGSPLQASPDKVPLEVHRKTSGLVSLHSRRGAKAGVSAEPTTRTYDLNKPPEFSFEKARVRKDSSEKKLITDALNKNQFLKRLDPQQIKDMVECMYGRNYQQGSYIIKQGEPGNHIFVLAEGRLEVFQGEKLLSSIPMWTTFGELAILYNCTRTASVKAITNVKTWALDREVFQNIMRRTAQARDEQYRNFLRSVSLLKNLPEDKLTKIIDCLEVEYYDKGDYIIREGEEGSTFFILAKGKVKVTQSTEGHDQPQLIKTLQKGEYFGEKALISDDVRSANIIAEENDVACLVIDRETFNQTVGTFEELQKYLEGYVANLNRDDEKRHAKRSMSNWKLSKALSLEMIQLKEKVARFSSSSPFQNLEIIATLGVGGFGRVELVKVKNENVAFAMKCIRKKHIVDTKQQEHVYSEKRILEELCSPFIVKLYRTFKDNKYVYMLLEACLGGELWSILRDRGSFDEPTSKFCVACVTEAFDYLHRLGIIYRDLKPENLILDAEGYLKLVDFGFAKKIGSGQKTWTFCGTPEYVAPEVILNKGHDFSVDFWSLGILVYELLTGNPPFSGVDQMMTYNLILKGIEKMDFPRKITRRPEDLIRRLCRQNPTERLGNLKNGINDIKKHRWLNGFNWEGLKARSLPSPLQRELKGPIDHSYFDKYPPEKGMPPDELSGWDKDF
In words: Selectivity interaction (KinomeScan (DiscoverX)) EUB0000045b PRKG2.

The subject of experiment [11] is Proto-oncogene tyrosine-protein kinase receptor Ret (Homo sapiens), P07949 [M918T]. Put plainly: (§1) Selectivity interaction (KinomeScan (DiscoverX)) EUB0000045b RET.
The test system of experiment [12] is Proto-oncogene tyrosine-protein kinase receptor Ret (Homo sapiens), P07949 [V804L]. The description is as §1.
Chain of Proto-oncogene tyrosine-protein kinase receptor Ret (Homo sapiens), P07949 [V804L] (P07949 whole entry V804L): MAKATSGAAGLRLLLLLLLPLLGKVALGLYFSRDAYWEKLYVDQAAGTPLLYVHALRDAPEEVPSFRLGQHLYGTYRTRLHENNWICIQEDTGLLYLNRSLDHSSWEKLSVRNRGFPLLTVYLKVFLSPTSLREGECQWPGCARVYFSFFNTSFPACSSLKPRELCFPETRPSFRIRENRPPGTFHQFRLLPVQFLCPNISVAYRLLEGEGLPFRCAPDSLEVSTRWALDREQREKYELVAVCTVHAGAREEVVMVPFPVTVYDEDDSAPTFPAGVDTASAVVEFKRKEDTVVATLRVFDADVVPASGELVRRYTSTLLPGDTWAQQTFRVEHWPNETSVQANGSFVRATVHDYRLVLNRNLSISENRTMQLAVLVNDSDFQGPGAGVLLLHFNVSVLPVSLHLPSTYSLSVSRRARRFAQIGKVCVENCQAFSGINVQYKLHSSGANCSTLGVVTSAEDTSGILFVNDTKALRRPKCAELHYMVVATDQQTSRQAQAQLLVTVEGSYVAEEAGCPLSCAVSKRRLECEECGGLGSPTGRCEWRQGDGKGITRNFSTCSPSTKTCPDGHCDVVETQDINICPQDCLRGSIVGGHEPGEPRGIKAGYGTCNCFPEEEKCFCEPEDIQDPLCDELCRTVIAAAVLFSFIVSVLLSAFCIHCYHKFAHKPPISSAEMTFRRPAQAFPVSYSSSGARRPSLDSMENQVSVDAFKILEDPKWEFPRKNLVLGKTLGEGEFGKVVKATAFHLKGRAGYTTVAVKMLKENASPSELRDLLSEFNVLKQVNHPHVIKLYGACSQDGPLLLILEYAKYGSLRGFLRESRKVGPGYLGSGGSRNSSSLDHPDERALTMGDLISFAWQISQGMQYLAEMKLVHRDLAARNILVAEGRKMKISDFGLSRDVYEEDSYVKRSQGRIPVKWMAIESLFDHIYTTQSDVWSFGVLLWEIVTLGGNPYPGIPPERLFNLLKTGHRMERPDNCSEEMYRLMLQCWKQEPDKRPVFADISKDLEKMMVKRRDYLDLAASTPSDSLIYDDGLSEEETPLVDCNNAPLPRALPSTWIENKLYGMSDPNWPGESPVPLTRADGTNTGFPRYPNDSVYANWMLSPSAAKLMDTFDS
Experiment [13] concerns Proto-oncogene tyrosine-protein kinase receptor Ret (Homo sapiens), P07949 [V804M]. The description is as §1.
Chain of Proto-oncogene tyrosine-protein kinase receptor Ret (Homo sapiens), P07949 [V804M] (P07949 whole entry V804M): as the sequence (P07949 whole entry V804L) above, with L804M counted along it
Experiment [14] has as its target Proto-oncogene tyrosine-protein kinase receptor Ret (Homo sapiens, UniProt P07949). The description is as §1.
Experiment [15] has as its target Activin receptor type-2A (Homo sapiens) (UniProt P27037). Put plainly: Selectivity interaction (KinomeScan (DiscoverX)) EUB0000595a ACVR2A. The conditions noted are these: at 10 µM.

Chain of Proto-oncogene tyrosine-protein kinase receptor Ret (Homo sapiens), P07949 [M918T] (P07949 whole entry M918T): as the sequence (P07949 whole entry V804L) above, with L804V, M918T counted along it
Chain of Proto-oncogene tyrosine-protein kinase receptor Ret (P07949 whole entry): as the sequence (P07949 whole entry V804L) above, with L804V counted along it

With `Cn1cc(-n2cnc3c(NCc4nc5cc(Cl)c(Cl)cc5[nH]4)nc(N4CCOCC4)nc32)cn1`, the % of inhibition in experiment [1] amounted to 8.68%.
For the molecule `CN(C)C/C=C/C(=O)Nc1ccc(C(=O)N2CCCC(Nc3ncc(Cl)c(-c4c[nH]c5ccccc45)n3)C2)cc1` (stereo not given), in experiment [2], the % of control stood at 89%.
For the molecule `CNC(=O)Nc1ccc(-c2nc(N3CC4CCC(C3)O4)c3cnn(C4CCC5(CC4)OCCO5)c3n2)cc1`, the % of control in experiment [3] turned out to be 77%.
For `CN(C)CCOc1ccc(-c2nc(-c3ccncc3)c(-c3ccc4c(c3)CC/C4=N\O)[nH]2)cc1`, the % of control in experiment [4] stood at 4%.
In the case of `Nc1cnc(N2CCc3cc(S(=O)(=O)Nc4c(F)cc(Cl)cc4F)cc(N4CCCC4=O)c32)nc1` [TP-020n], the % of control in experiment [5] is 91%.
Turning to `CN1Cc2nccc(-c3cn(C)nc3-c3ccc(F)cc3)c2C1=O`, the % of inhibition in experiment [6] was 3%.
As to `CC[C@@H]1[C@H](F)C(=O)N[C@@H]1COc1nccc2cc(C(N)=O)c(OC)cc12` [ZIMLOVISERTIB], the % of inhibition in experiment [7] was 6.9%; in experiment [8], -1.7%.
Molecule `CC(=O)Nc1cccc(-n2c(=O)n(C3CC3)c(=O)c3c(Nc4ccc(I)cc4F)n(C)c(=O)c(C)c32)c1` registered a % of control in experiment [9] of 109%.
Take `C=CC(=O)Nc1cc(-n2c(=O)ccc3cnc4ccc(-c5ccc(NS(C)(=O)=O)cc5)cc4c32)ccc1C`: the % of control turned out to be 100% in experiment [10] (at 1 µM); 95% in experiment [10] (at 10 µM); 11% in experiment [11] (at 1 µM); 74% in experiment [11] (at 10 µM); 79% in [12] (at 1 µM); 100% in [12] (at 10 µM). In addition, the % of control in experiment [13] (at 1 µM) worked out at 85%; in experiment [13] (at 10 µM), 100%; in experiment [14] (at 1 µM), 88%; in [14] (at 10 µM) it was 96%.
With `COCC(=O)NC/C=C/c1ccc2ncnc(Nc3ccc(Oc4ccc(C)nc4)c(C)c3)c2c1` [CP-724714], in experiment [15], the % of control amounted to 100%.
